Results taken from EP1595878A1, “INDOLE DERIVATIVES WITH APOPTOSIS INDUCING ACTIVITY” (Zentaris GmbH, priority 2004, dated 2005).
Converted amounts (≈) assume the structure as drawn. Read-outs that look alike come from different tables or passages of the source.

Legend:
[1] = target: humaner DNA-Topoisomerase II (Homo sapiens, UniProt P11388); assay: kDNA decatenation assay for topoisomerase II activity; format: biochemical; details: compound 1 at 100, 31.6 and 10 µM; reference compounds at 100 µM
Description: In diesem von P. Arimondo (Anti-Cancer Drug Design 2000, 15 (6), 413-421) beschriebenen Assay wird kDNA mit humaner DNA-Topoisomerase II in Abwesenheit oder Gegenwart der Testverbindungen behandelt. Die Testung der erfindungsgemäßen Verbindung 1 erfolgte hierbei bei drei unterschiedlichen Konzentrationen (100, 31.6 und 10 µM). Zum Vergleich setzte man eine Positivkontrolle und die Referenzverbindungen m-Amsacrin (m-Amsa), Paclitaxel (Taxol) und Vincristine bei einer jeweiligen Konzentration von 100µM ein.
Zu 1µL vorgelegter Testsubstanz (20fach konzentriert in 100% DMSO) werden 2µL 10x Assay Puffer, 1µL kDNA (200ng), 0,5µL human Topoisomerase II (1unit) und 15,5µL H2O pipettiert und gemischt.
Die Reaktionsansätze werden in den auf 37°C vorgeheizten Heizblock gestellt und 10min bei 37°C inkubiert. Die Inkubation wird nach Zugabe von 4µL 5x Stop Puffer gestoppt und nachfolgend die Substanz mit CIA extrahiert. Danach werden 20µL des Überstandes auf ein 1 % Agarosegel mit 0,25µg/mL Ethidiumbromid aufgetragen und 1 h bei 100V aufgetrennt. Zum Schluss wird das Gel unter UV-Anregung fotografiert (s. Figur 1). Die Quantifizierung der Inhibierung der Decatenation von kDNA erfolgt mit der GelPro®Analyzer Software (s. Figur 2)

[2] = format: physicochemical; details: water, at most 1 % DMSO added
Description: Die Bestimmung der Sättigungslöslichkeit in Wasser für die Verbindungen 1, 2, 10 und 14 erfolgte wie nachfolgend beschrieben. Zum Anlösen der Substanzen und um die Benetzung der Proben zu verbessern, wurde maximal 1 % DMSO zugesetzt. Zur Überprüfung des Gehaltes wurde eine HPLC-UV-Methode angewandt. Die Ergebnisse sind in der nachfolgenden Tabelle 5 zusammengefasst: Tabelle 5: […]

[3] = test system: Doxorubicin-resistente P388; assay: XTT proliferation assay, doxorubicin-resistant P388; format: cell-based, murine; details: Mus musculus
Description: (§1) Die Substanzen 1, 2, 4, 9, 11, 12 , 13 und 15 wurden in einem Proliferationstest an etablierten Tumorzelllinien auf ihre anti-proliferative Aktivität hin untersucht (D.A. Scuderio et al. Cancer Res. 1988, 48, 4827-4833). Der verwendete Test bestimmt die zelluläre Dehydrogenase-Aktivität und ermöglicht eine Bestimmung der Zellvitalität und indirekt der Zellzahl. Bei den verwendeten Zelllinien handelt es sich um die humane Cervixkarzinom Zelllinie KB/HeLa (ATCC CCL17), die ovariale Adenokarzinomzelllinie SKOV-3 (ATCC HTB77), die humane Glioblastom Zelllinie SF-268 (NCI 503138) und die Lungenkarzinom Zelllinie NCI-H460 (NCI 503473). Tabelle 1:
(§2) Zur weiteren Charakterisierung wurden die Substanzen 1, 2, 4 und 11 gegenüber multi drug resistenten Zelllinien im Vergleich zu den nicht-resistenten Wildtypzelllinien untersucht.
(§3) Bei den untersuchten Zelllinien handelt es sich um die murine L1210, die akute myeloische Leukaemie Zelllinie LT12 und um die resistenten Linien L1210/mdr und LT12/mdr. Außerdem wurden die murine P388 Zelllinie (methyl-cholanthreneinduced lymphoid neoplasm) sowie die Doxorubicin-resistente P388 als Testsysteme herangezogen.

L1210VCR = assay: XTT proliferation assay, resistant L1210; format: cell-based, murine; details: Mus musculus
Description: as §1, §2, §3

LT12/mdr = assay: XTT proliferation assay, resistant LT12/mdr; format: cell-based; details: Rattus norvegicus
Description: as §1, §2, §3

Rindertubulin = assay: Inhibition of tubulin polymerisation in vitro; format: biochemical, Rind; details: for Hemmwirkung auf die Polymerisation von Tubulin: verbal summary of Table 3
Description: Die Substanzen 1, 4, 9, 11, 12, 13 und 15 wurden in einem in-vitro Test auf Hemmung der Polymerisation von Rindertubulin getestet (D.M. Bollag et al. Cancer Res. 1995, 55, 2325-2333). In diesem Test wird durch Zyklen von Polymerisation und Depolymerisation aufgereinigtes Tubulin eingesetzt, welches durch Zugabe von GTP und Erwärmung zur Polymerisation gebracht wird. In Tabelle 3 sind die EC50 Werte der Polymerisationshemmung von Tubulin mit 30% assoziierten Proteinen (MAPs) angegeben.

human Topoisomerase II = human Topoisomerase II (Homo sapiens, UniProt P11388); assay: pRYG relaxation assay for topoisomerase II activity; format: biochemical; details: compound 1 at 100, 31.6 and 10 µM; reference compounds at 316 and 100 µM
Description: Mit diesem Relaxationsassay konnte zusätzlich die inhibitorische Eigenschaft der erfindungsgemäßen Verbindungen auf Topoisomerase II gezeigt werden. Die Testung der erfindungsgemäßen Verbindung 1 erfolgte hierbei bei drei unterschiedlichen Konzentrationen (100, 31.6 und 10 µM). Zum Vergleich setzte man die Referenzverbindungen m-Amsacrin, Paclitaxel (Taxol) und Vincristine bei Konzentrationen von 316 und 100µM ein.
Zu 1µL vorgelegter Testsubstanz (20fach konzentriert in 100% DMSO) werden 2µL 10x Assay Puffer, 0,5µL pRYG DNA (125ng), 0,5µL human Topoisomerase II (1 unit) und 16µL H2O pipettiert und gemischt. Die Reaktionsansätze werden in den auf 37°C vorgeheizten Heizblock gestellt und 30min bei 37°C inkubiert. Die Inkubation wird nach Zugabe von 4µL 5x Stop Puffer abgestoppt. Danach werden 10µL des Ansatzes auf ein 1,2% Agarosegel mit 0,25µg/mL Ethidiumbromid aufgetragen und 2,5h bei 100V aufgetrennt. Zum Schluß wird das Gel unter UV Anregung fotografiert (s. Figur 3). Die Quantifizierung der Inhibierung der pRYG Relaxation erfolgt mit der GelPro®Analyzer Software (s. Figur 4).

U-937 Zelllinie = assay: CDD plus nucleosome ELISA test (apoptosis detection); format: cell-based; details: U-937, 1nM-10µM, 24 h treatment; for Nucleosomen im Zelllysat: cell lysate; for Nucleosomen im Zellkulturüberstand: culture supernatant
Description: Die Kernfragmentierung ist eine Spätfolge apoptotischer Prozesse. Die dabei zu beobachtenden Veränderungen lassen sich auf durch Endonukleasen gespaltene DNA-Stränge und daraus resultierende Fragmentierung in Nucleosomen Partikel zurückführen.
Zum Nachweis der Nucleosomen Partikel wurde der von der Firma Roche Molecular Biochemicals beschriebene CDD^plus Nucleosomen ELISA Test eingesetzt. Hierzu untersuchte man die Verbindungen 1 und 2 an der U-937 Zelllinie bei unterschiedlichen Konzentrationen (1nM-10µM, 24 h Behandlung). (s. Figur 5 und Figur 6)

KB/HeLa Zellen = assay: Cell cycle analysis (G2/M arrest); format: cell-based; details: Homo sapiens, read-out: EC50 in nM (50% cells in G2/M)
Description: Der Zellzyklus umfasst die Entwicklung der Zelle von einer Zellgeneration zur nächsten.
Während der Ruhephase (G0) und präsynthetischen Phase (G1) besitzt die Zelle einen diploiden Chromosomensatz (2c). In der Synthesephase (S) wird die DNA-Menge durch Replikation vermehrt. Die S-Phase endet mit Erreichen der prämitotischen Phase (G2M), in der die Zelle einen reduplizierten Chromosomenbestand (4c) und verdoppelten DNA-Gehalt aufweist. In der nachfolgenden, kurzdauernden Mitosephase (M) kommt es zur gleichmäßigen Aufteilung der reduplizierten Chromosomen auf zwei Tochterzellen, die dann jeweils wieder einen diploiden DNA Gehalt zeigen und sich in der G01-Phase befinden, so daß der Zellzyklus neu beginnen kann.
Für die Zellzyklusanalyse wurden KB/HeLa Zellen mit den Testsubstanzen in unterschiedlichen Konzentrationen (0.1-1000 nM) 24 Stunden bei 37°C behandelt.
Der prozentuale Anteil der in der G2/M Phase des Zellzyklus arrettierten Zellen nach Behandlung mit Referenz- oder ausgewählten Testsubstanzen ist in der nachfolgenden Tabelle 4 dargestellt. Die Ergebnisse wurden mit einer speziellen Analysesoftware (ModFit™) ausgewertet.

[4] = test system: Lungenkarzinom Zelllinie NCI-H460 (NCI 503473); assay: XTT proliferation assay (cytotoxicity test), NCI-H460; format: cell-based; details: Homo sapiens, NCl-H460, read-out: XTT Proliferationsassay, EC50
Description: as §1, with “503473).” for “503473). Tabelle 1:”

murine L1210 = assay: XTT proliferation assay, L1210 wild type; format: cell-based; details: Mus musculus, L1210, read-out: XTT Proliferationsassay, EC50
Description: as §1, §2, §3

[5] = test system: murine P388 Zelllinie (methyl-cholanthreneinduced lymphoid neoplasm); assay: XTT proliferation assay, P388 wild type; format: cell-based; details: Mus musculus, P388, read-out: XTT Proliferationsassay, EC50
Description: as §1, §2, §3

[6] = test system: humane Glioblastom Zelllinie SF-268 (NCI 503138); assay: XTT proliferation assay (cytotoxicity test), SF-268; format: cell-based; details: Homo sapiens, read-out: XTT Proliferationsassay, EC50
Description: as §1, with “503473).” for “503473). Tabelle 1:”

[7] = test system: humane Cervixkarzinom Zelllinie KB/HeLa (ATCC CCL17); assay: XTT proliferation assay (cytotoxicity test), KB/HeLa; format: cell-based; details: Homo sapiens, read-out: XTT Proliferationsassay, EC50
Description: as §1, with “503473).” for “503473). Tabelle 1:”

[8] = test system: ovariale Adenokarzinomzelllinie SKOV-3 (ATCC HTB77); assay: XTT proliferation assay (cytotoxicity test), SKOV-3; format: cell-based; details: Homo sapiens, SK-OV-3; SKOV3; read-out: XTT Proliferationsassay, EC50
Description: as §1, with “503473).” for “503473). Tabelle 1:”

Melanom, MEXF462 = format: in vivo, Mäuse; details: 80 mg/kg p.o.; day 18
Description: Die in vivo Aktivität und Verträglichkeit der erfindungsgemäßen Verbindung 2 wurde im Vergleich zu den Substanzen 10 und 14 in einem humanen Xenograft-Modell (Melanom, MEXF462) überprüft. Die Ergebnisse sind in der nachfolgenden Tabelle 6 zusammengefasst: in vivo Aktivitäten von Verbindung 2, 10 and 14 (Melanom; MEXF462) Tabelle 6: […]

Mamma, MAXF857 = format: in vivo, Mäuse; details: 80 mg/kg p.o.
Description: Die in vivo Aktivität und Verträglichkeit der erfindungsgemäßen Verbindung 2 wurde im Vergleich zu der Substanz 10 in einem weiteren humanen Xenograft-Modell (Mamma, MAXF857) überprüft. Die Ergebnisse werden in der nächsten Tabelle gezeigt: Effect of 2 and 10 on the Mammary Cancer MAXF857 Tabelle 7: […]

[9] = test system: akute myeloische Leukaemie Zelllinie LT12; assay: XTT proliferation assay, LT12 wild type; format: cell-based; details: Rattus norvegicus, LT12, read-out: XTT Proliferationsassay, EC50
Description: as §1, §2, §3

[10] = P388, P388ADR, read-out: XTT Proliferationsassay, EC50
[11] = L1210, L1210VCR, read-out: XTT Proliferationsassay, EC50
[12] = LT12, LT12mdr, read-out: XTT Proliferationsassay, EC50
[13] = KB/HeLa cells, 0.1-1000 nM, 24 h at 37°C

Chain of human Topoisomerase II (P11388 whole entry): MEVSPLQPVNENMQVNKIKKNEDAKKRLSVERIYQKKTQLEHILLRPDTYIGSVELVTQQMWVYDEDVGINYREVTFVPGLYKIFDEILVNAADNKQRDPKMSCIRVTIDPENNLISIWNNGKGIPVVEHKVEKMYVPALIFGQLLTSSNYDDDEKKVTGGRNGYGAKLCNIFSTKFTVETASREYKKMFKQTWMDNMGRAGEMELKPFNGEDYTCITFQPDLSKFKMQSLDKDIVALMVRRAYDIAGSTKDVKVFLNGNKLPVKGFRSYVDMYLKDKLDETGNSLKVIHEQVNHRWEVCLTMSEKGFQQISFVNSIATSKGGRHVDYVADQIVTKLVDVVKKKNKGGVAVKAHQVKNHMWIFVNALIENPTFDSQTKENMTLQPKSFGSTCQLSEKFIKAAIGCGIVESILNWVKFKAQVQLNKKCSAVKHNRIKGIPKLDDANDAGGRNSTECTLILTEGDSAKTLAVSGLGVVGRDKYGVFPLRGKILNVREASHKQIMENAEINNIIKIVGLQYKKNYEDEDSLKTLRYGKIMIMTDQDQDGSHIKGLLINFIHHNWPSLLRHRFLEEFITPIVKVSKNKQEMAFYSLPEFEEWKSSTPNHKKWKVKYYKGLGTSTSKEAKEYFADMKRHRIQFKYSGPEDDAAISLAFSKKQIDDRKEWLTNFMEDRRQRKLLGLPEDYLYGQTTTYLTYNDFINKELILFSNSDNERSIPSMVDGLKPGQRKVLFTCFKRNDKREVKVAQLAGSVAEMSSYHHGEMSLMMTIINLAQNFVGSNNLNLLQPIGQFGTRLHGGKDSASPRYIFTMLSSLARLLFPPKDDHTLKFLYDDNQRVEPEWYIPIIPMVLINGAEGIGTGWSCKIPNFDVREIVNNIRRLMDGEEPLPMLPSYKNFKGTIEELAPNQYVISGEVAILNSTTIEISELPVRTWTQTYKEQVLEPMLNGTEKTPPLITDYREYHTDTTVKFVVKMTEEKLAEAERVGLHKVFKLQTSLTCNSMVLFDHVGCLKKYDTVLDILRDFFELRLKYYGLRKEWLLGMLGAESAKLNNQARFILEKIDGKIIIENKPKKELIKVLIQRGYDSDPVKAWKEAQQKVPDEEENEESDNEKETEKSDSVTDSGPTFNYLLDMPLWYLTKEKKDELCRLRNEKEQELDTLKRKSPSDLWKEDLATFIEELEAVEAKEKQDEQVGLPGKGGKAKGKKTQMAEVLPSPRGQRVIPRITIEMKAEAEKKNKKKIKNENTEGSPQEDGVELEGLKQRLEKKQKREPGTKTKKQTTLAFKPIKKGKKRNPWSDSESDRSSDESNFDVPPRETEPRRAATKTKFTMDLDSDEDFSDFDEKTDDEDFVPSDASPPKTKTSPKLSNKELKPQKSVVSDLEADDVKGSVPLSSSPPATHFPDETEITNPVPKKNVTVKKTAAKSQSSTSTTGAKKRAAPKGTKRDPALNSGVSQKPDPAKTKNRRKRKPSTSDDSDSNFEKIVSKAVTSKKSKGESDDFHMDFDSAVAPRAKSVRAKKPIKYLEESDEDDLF
Chain of humaner DNA-Topoisomerase II (P11388 whole entry): as above

O=C(Nc1cnc2nccnc2c1)C(=O)c1cn(Cc2ccc(Cl)cc2)c2ccccc12 [Verbindung 1, 2-[1-(4-Chlor-benzyl)-1H-indol-3-yl]-2-oxo-N-pyrido[2,3-b]pyrazin-7-yl-acetamid]
Hemmung der Topoisomerase II (Inhibierung der Decatenation von kDNA) [1]: signifikante Hemmung | Sättigungslöslichkeit in Wasser [2]: 25.0 µg/mL | EC50 [3, 10]: 0.019 µg/mL (≈ 0.043 µM) | EC50 (L1210VCR; [11]): 0.021 µg/mL (≈ 0.0475 µM) | EC50 (LT12/mdr; [12]): 0.017 µg/mL (≈ 0.0385 µM) | Hemmung der Tubulin-Polymerisation, EC50 (Rindertubulin; tubulin with 30% associated proteins (MAPs), mean of two independent experiments): 0.71 µg/mL | Hemmwirkung auf die Polymerisation von Tubulin (Rindertubulin): sehr potente Hemmwirkung | Hemmung der Topoisomerase II (Inhibierung der pRYG Relaxation) (human Topoisomerase II): signifikante Hemmung | Nucleosomen im Zelllysat (U-937 Zelllinie): konzentrationsabhängiger Anstieg | Nucleosomen im Zellkulturüberstand (U-937 Zelllinie): kein signifikanter Anstieg | EC50 (KB/HeLa Zellen; [13]): 25.2 nM

CC(=O)N(C(=O)C(=O)c1cn(Cc2ccc(Cl)cc2)c2ccccc12)c1ccc2ncccc2c1 [Verbindung 2, N-{2-[1-(4-Chlor-benzyl)-1H-indol-3-yl]-2-oxo-acetyl}-N-chinolin-6-yl-acetamid]
EC50 [4]: 0.168 µg/mL (≈ 0.349 µM) | EC50 (murine L1210): 0.206 µg/mL (≈ 0.427 µM) | Sättigungslöslichkeit in Wasser [2]: 28.5 µg/mL | EC50 ([3]; P388, read-out: XTT Proliferationsassay, EC50): 0.215 µg/mL (≈ 0.446 µM) | EC50 (L1210VCR; L1210, read-out: XTT Proliferationsassay, EC50): 0.558 µg/mL (≈ 1.16 µM) | EC50 [5]: 0.224 µg/mL (≈ 0.465 µM) | EC50 (LT12/mdr; LT12, read-out: XTT Proliferationsassay, EC50): 0.272 µg/mL (≈ 0.564 µM) | EC50 [6]: 0.166 µg/mL (≈ 0.344 µM) | Nucleosomen im Zelllysat (U-937 Zelllinie): konzentrationsabhängiger Anstieg | Nucleosomen im Zellkulturüberstand (U-937 Zelllinie): kein signifikanter Anstieg | EC50 [7]: 0.202 µg/mL (≈ 0.419 µM) | EC50 [8]: 0.123 µg/mL (≈ 0.255 µM) | EC50 (KB/HeLa Zellen; HeLa, 24 h): 125 nM | Optimale T/C % (Tag) (Melanom, MEXF462): 0.0% | Optimale T/C % (Tag) (Mamma, MAXF857; day 10): 9.6% (10) | Todesfällen (Mamma, MAXF857; dead animals / total): 0/6 Mäuse | EC50 [9]: 0.225 µg/mL (≈ 0.467 µM)

O=C(Nc1ccc2[nH]ncc2c1)C(=O)c1cn(Cc2ccc(Cl)cc2)c2ccccc12 [Verbindung 4, 2-[1-(4-Chlor-benzyl)-1H-indol-3-yl]-N-(1H-indazol-5-yl)-2-oxo-acetamid]
EC50 [3, 10]: 0.231 µg/mL (≈ 0.539 µM) | EC50 (L1210VCR; [11]): 0.241 µg/mL (≈ 0.562 µM) | EC50 (LT12/mdr; [12]): 0.093 µg/mL (≈ 0.217 µM) | Hemmwirkung auf die Polymerisation von Tubulin (Rindertubulin): sehr potente Hemmwirkung | EC50 (KB/HeLa Zellen; [13]): 252 nM
